“And” between values parts separate entries of the source, which are not always exact repeats. Equal entries are not always repeated.
Target: T1, motor domain of human KSP (Eg 5, KNSL1) (Homo sapiens, UniProt P52732)
T1 construct: KSP motor protein (i.e., the KSP motor domain); made in house
T1 sequence (P52732 18-359 limits assumed): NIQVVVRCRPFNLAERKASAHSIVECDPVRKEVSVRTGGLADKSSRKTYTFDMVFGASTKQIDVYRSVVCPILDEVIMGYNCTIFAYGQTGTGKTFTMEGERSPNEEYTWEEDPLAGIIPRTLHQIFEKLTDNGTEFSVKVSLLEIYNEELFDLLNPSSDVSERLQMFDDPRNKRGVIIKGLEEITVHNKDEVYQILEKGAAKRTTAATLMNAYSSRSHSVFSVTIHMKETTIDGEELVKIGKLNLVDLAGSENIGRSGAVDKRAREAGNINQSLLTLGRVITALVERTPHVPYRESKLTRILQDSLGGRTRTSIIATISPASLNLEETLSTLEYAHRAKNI
Assay: Assay for determining KSP activity (microtubule-stimulated ATPase, Biomol Green)
Assay type: biochemical
Details: KSP motor domain 45 nM, microtubules 35 μg/mL, ATP, 1 hour RT, absorbance at 630 nm
From the text: This example provides a representative in vitro assay for determining KSP activity in vitro. Purified microtubules obtained from bovine brain were purchased from Cytoskeleton Inc. (Denver, Colo., USA). The motor domain of human KSP (Eg 5, KNSL1) was cloned, expressed, and purified to greater than 95% homogeneity. Biomol Green was purchased from Affinity Research Products Ltd. (Matford Court, Exeter, Devon, United Kingdom). Microtubules and KSP motor protein (i.e., the KSP motor domain) were diluted in assay buffer (20 mM Tris-HCl (pH 7.5), 1 mM MgCl2, 10 mM DTT and 0.25 mg/mL BSA) to a final concentration of 35 μg/mL microtubules and 45 nM KSP. The microtubule/KSP mixture was then pre-incubated at 37° C. for 10 min to promote the binding of KSP to microtubules.
To each well of the testing plate (384-well plate) containing 1.25 μL of inhibitor or test compound in DMSO (or DMSO only in the case of controls) were added 25 μL of ATP solution (ATP diluted to a concentration of 300 μM in assay buffer) and 25 μL of the above-described microtubule/KSP solution. The plates were incubated at RT for 1 hour. Following incubation, 65 μL of Biomol Green (a malachite green-based dye that detects the release of inorganic phosphate) was added to each well. The plates were incubated for an additional 5-10 minutes then the absorbance at 630 nm was determined using a Victor II plate reader. The amount of absorbance at 630 nm corresponded to the amount of KSP activity in the samples. The IC50 of each inhibitor or test compound was then determined based on the decrease in absorbance at 630 nm at each concentration, via nonlinear regression using either XLFit for Excel or Prism data analysis software by GraphPad Software Inc.

IC50	SMILES
> 100 nM and ≤ 1000 nM	C[C@H](O)C(=O)N(CC[C@@H](N)C(F)F)[C@@H](c1nc(-c2cc(F)ccc2F)nn1Cc1cccc(C(F)(F)F)c1)C(C)(C)C [Compound 78, (S)-N-((R)-3-amino-4,4-difluorobutyl)-N-((R)-1-(3-(2,5-difluorophenyl)-1-(3-(trifluoromethyl)benzyl)-1H-1,2,4-triazol-5-yl)-2,2-dimethylpropyl)-2-hydroxypropanamide]
> 100 nM and ≤ 1000 nM	C[C@H](O)C(=O)N(CC[C@H](N)C(F)F)[C@@H](c1nc(-c2cc(F)ccc2F)nn1Cc1cccc(C(F)(F)F)c1)C(C)(C)C [Compound 80, (S)-N-((S)-3-amino-4,4-difluorobutyl)-N-((R)-1-(3-(2,5-difluorophenyl)-1-(3-(trifluoromethyl)benzyl)-1H-1,2,4-triazol-5-yl)-2,2-dimethylpropyl)-2-hydroxypropanamide]
> 1000 nM	C[C@H](O)C(=O)N(CC[C@H](N)CF)[C@@H](c1nc(-c2cc(Cl)cc(Cl)c2)nn1Cc1ccccc1)C(C)(C)C [Compound 71, (S)-N-((S)-3-amino-4-fluorobutyl)-N-((R)-1-(1-benzyl-3-(3,5-dichlorophenyl)-1H-1,2,4-triazol-5-yl)-2,2-dimethylpropyl)-2-hydroxypropanamide]
≤ 100 nM	Cc1cccc(Cn2nc(-c3cc(F)ccc3F)nc2[C@H](N(CC[C@H](N)C(F)F)C(=O)[C@H](C)O)C(C)(C)C)c1 [Compound 79, (S)-N-((S)-3-amino-4,4-difluorobutyl)-N-((R)-1-(3-(2,5-difluorophenyl)-1-(3-methylbenzyl)-1H-1,2,4-triazol-5-yl)-2,2-dimethylpropyl)-2-hydroxypropanamide]

Further lines, the compound ahead of its results:

SMILES	IC50
CC(C)c1cccc(Cn2nc(-c3cc(F)ccc3F)nc2[C@H](N(CC[C@@H](N)C(F)F)C(=O)[C@H](C)O)C(C)(C)C)c1 [Compound 86, (S)-N-((R)-3-amino-4,4-difluorobutyl)-N-((R)-1-(3-(2,5-difluorophenyl)-1-(3-isopropylbenzyl)-1H-1,2,4-triazol-5-yl)-2,2-dimethylpropyl)-2-hydroxypropanamide]	> 1000 nM
CC(C)c1cccc(Cn2nc(-c3cc(F)ccc3F)nc2[C@H](N(CC[C@H](N)C(F)F)C(=O)[C@H](C)O)C(C)(C)C)c1 [Compound 85, (S)-N-((S)-3-amino-4,4-difluorobutyl)-N-((R)-1-(3-(2,5-difluorophenyl)-1-(3-isopropylbenzyl)-1H-1,2,4-triazol-5-yl)-2,2-dimethylpropyl)-2-hydroxypropanamide]	> 1000 nM
C[C@H](O)C(=O)N(CC[C@@H](N)C(F)F)[C@@H](c1nc(-c2cc(F)ccc2F)nn1Cc1cccc(C#N)c1)C(C)(C)C [Compound 77, (S)-N-((R)-3-amino-4,4-difluorobutyl)-N-((R)-1-(1-(3-cyanobenzyl)-3-(2,5-difluorophenyl)-1H-1,2,4-triazol-5-yl)-2,2-dimethylpropyl)-2-hydroxypropanamide]	> 100 nM and ≤ 1000 nM

Reference: patent publication US7902240B2, “Substituted pyrazole and triazole compounds as KSP inhibitors” (Novartis AG, priority 2006, dated 2011)
